Assay results as given in patent publication US20230240290A1, “USE OF (Z)-3-HEXENYL ESTERS AND METHOD FOR PROTECTING PLANTS AGAINST PESTS” (UNIVERSITAT POLITÈCNICA DE VALÈNCIA, priority 2020, published 2023).

Legend:
[1] = tested on: SI-PI-I (marker for plant proteinase inhibitors); test: Transcriptional response of SI-PI-I in tomato plants exposed to volatiles (laboratory); assay type: in vivo, Solanum lycopersicum cv. Moneymaker; settings: intact tomato plants exposed 24 h; filter paper, 1:10,000 ester:methanol; n=8
Protocol: Moneymaker tomato plants were used. Two weeks after seed germination, the seedlings were individually transplanted into pots (8×8×8 cm). The plants were kept at 25±2° C., with a constant relative humidity of 65%±5% and a 14:10 h (light:dark) photoperiod. Tomato plants that had not received any pesticide treatment at four weeks of age (about 20 cm tall) were used. All volatiles used were obtained from Sigma-Aldrich (St. Louis, Mo., USA). Each volatile was exposed by using a 2×2 cm piece of filter paper on which 10 μl of a solution containing the corresponding volatile at a concentration of 1:10,000 [(Z)-3-hexenyl ester:methanol] was impregnated as an emitting source of the corresponding volatile (Pérez-Hedo, M. et al. Biocontrol, 63: 203-213 (2018)).
To activate a plant, two pieces of filter paper impregnated with the volatile were placed at the bottom of a 30×30×30 cm plastic cage (BugDorm-1 Insect Tents; MegaView Science Co., Ltd, Taichung, Taiwan) into which the plant was introduced. A control treatment was carried out in which the two pieces of filter paper were impregnated with 10 μl of methanol. Eight repetitions per treatment were performed. The plants of the treatments were kept exposed to the volatile without disturbing for 24 hours in separate and isolated climatic chambers to avoid any interference from the volatiles and were kept at 25±2° C., 65±10% RH, and a 14:10 h (L:D) photoperiod. […]
The methodology followed for extracting and quantifying gene expression was described by Pérez-Hedo et al. Journal of Pest Science 3: 543-554 (2015). The primers used were forward primer: 5′-[…]-3′ (SEQ ID NO: 1) and reverse primer: 5′-[…]-3′ (SEQ ID NO: 2) for the quantification of PR1, forward primer: 5′-[…]-3′ (SEQ ID NO: 3) and reverse primer: 5′-[…]-3′ (SEQ ID NO: 4) for SI-PI-I, and forward primer: 5′-[…]-3′ (SEQ ID NO: 5) and reverse primer: 5′-[…]-3′ (SEQ ID NO: 6) for the SI-PI-II gene. […]

[2] = tested on: Tetranychus urticae; test: Development of Tetranychus urticae on exposed tomato plants; assay type: in vivo; settings: T. urticae, 21 days after release
Protocol: It was also studied whether the defensive activation induced by exposure to (Z)-3-hexenyl propanoate could influence the development of two highly important phytophages in tomato cultivation, the red spider, T. urticae, and the lepidoptera T. absoluta. The individuals used in these experiments came from the captive breeding of these species that are kept in the IVIA described above. The exposure time of the plant to the volatile was tested on both phytophages in two different ways, one where the plant was only exposed to the volatile for 24 hours and then the herbivore to be assayed was immediately released, and the other where the volatile was permanently exposed throughout the experiment.
For this purpose, two climatic chambers were used under the same environmental conditions [25±2° C., 65±5% HR and 14:10 h (L:D) photoperiod], wherein, to avoid interference between the volatiles, one was assigned to the (Z)-3-hexenyl propanoate treatments and one to the control treatment. […]
Eight tomato plants (Lycopersicon esculentum cv. Moneymaker) were introduced in each cage. […] Naked eye sampling was carried out seven, 14, and 21 days after the release of T. urticae, where the total number of T. urticae females in each plant was counted.

[3] = tested on: Tuta absoluta; settings: in vivo
Protocol: Two consecutive experiments were performed to assess the effect of exposure to both volatiles on T. absoluta. The first experiment studied the effect on the laying of T absoluta. The selected eggs laid in the first experiment were later used in the second experiment to study the mortality of immature T. absoluta specimens developed in plants exposed to (Z)-3-hexenyl propanoate. The same three treatments described above for T. urticae were also assayed for T. absoluta. The laying of T. absoluta was assessed in 8 tomato plants (cv. Moneymaker) per treatment. Each of the plants was isolated inside a plastic cage (60×60×60 cm) (BugDorm-2) and kept in a climatic chamber at 25±2° C., 65±5% HR, 14:10 (L:D) h photoperiod following the same assay distribution described for T. urticae. Inside each cage (replica), 2 adult pairs were released from T. absoluta (males and females) and left undisturbed for 72 hours. After this time, T. absoluta adults were removed, and the number of eggs was counted.
To study the mortality of T. absoluta in the plants exposed to the 3 treatments described above, 6 T. absoluta eggs per plant were equally distributed on all the leaves with the help of a fine brush. […] Mortality of T. absoluta was assessed in 8 tomato plants (cv. Moneymaker) per treatment. […] As soon as the adults began to emerge, they were counted and removed daily from the cages.

[4] = tested on: plant; test: Growth and production of plants exposed to the volatile; assay type: in vivo

SMILES: CC/C=C\CCOC(=O)CC [(Z)-3-hexenyl propanoate]
- Transcriptional response of SI-PI-I compared to the control [1]: significantly overexpressed
- Reduction in the number of mites per plant with respect to the control ([2]; plant exposed for 24 h before release): 50.3±6.3%
- Reduction in the number of mites per plant with respect to the control ([2]; plant exposed throughout the entire experiment): 83.9±5.0%
- Mortality from T. absoluta egg to adult [3]: around 80%
- Growth or production of the plant [4]: does not reduce the growth or production of the plant
